Each structure is given as a SMILES string.

For this assay, the system named is High fat diet + STZ + DOCA (diabetic nephropathy). Briefly: Renal lipids (triglyceride, total cholesterol, free fatty acid, phospholipids) by automated analyzer in high fat diet + STZ + DOCA model. The format is in vivo, rats. On the procedure: After 1 week of adaptive feeding, the rats were randomly divided into normal control and experimental groups. The experimental group received high-fat diet (consisting of 70% standard laboratory chow, 15% carbohydrates, 10% lard, and 5% yolk powder) to establish an insulin resistance model, while the normal control group receive standard chow. After 4 weeks of high-fat diet feeding, the experimental group rats were induced with diabetes by a single intraperitoneal injection of STZ (35 mg/kg, dissolved in 0.01 M sodium citrate buffer, pH 4.4), while the Normal group rats were injected with the same dose of citrate buffer. At the 7th day after STZ injection, the blood glucose levels of rats were measured to confirm the successful establishment of the model. Rats with blood glucose level ≥250 mg/dl is indicative of the establishment of the disease and selected for further pharmacological studies. All rats were fed their respective diets until the end of the study. Rats were also given 1% NaCl (salt) to drink and on day 28, 0.75 μg […] (DOCA) was subcutaneously infused. Blood pressure and urinary albumin were measured to establish renal hypertension.
All the experimental rats were assigned to the specific treatment group and test drugs were administered orally once daily between 9:00 and 11:00 a.m., continuously for 12 weeks.
At the end of the treatment, all rats were be housed in individual metabolic cages for 24 h to collect urine samples and then sacrifice. Urine samples were centrifuged at 4000×g for 5 min to separate the supernatant. Blood samples are acquired by a small puncture to retro orbital plexus and centrifuged at 4000×g for 10 min at 4° C. to separate the plasma for subsequent experiments. Serum was also separated from the blood for analysis in which anti-coagulant was not added. Thereafter, the kidneys were immediately harvested and weighed. The right kidneys were washed in ice-cold saline solution and fixed in 4% neutral formaldehyde solution for histological examination, whereas the renal cortex of the left kidneys was rinsed with cold isotonic saline and subsequently stored at −70° C. until biochemical estimations.
Measurement of renal lipids viz. Triglyceride, Total cholesterol, Free Fatty Acid, Phospholipids was also done by automated analyzer.

Setting [1] is: decrease against High fat diet + STZ + DOCA group.
Where [2] appears, read: renal lipids, high fat diet + STZ + DOCA rats, p.o. 12 weeks.

Consider `CN(C)C(=N)N=C(N)N` [Metformin], for which, under setting [1], the “Free fatty acids, % decrease (↓)” value stood at 47.5%↓; the “Phospholipids, % decrease (↓)” value turned out to be 55.2%↓; the “Total Cholesterol, % decrease (↓)” value was 30%↓; the “Triglycerides, % decrease (↓)” value was 17.2%↓. Besides, under setting [2], the Free fatty acids came out at 25.34 ± 1.88 mg/mL, the Phospholipids came to 4.33 ± 0.023 mg/mL, the “Total Cholesterol” value came to 40.33 ± 3.50 mg/dL and the Triglycerides came to 122.67 ± 3.56 mg/mL.

Values taken from US20240189257A1, “COMPOSITIONS AND METHODS FOR MANAGING NEPHROPATHY” (SAMI-SABINSA GROUP LIMITED, priority 2021, published 2024).
